# What was measured:
# [1] = Doxorubicin toxicity in naive mice (body weight, food intake, survival); type: in vivo, C57/BL6 mice; details: doxorubicin 25 mg/kg
# Description: Two of four groups of five naive C57/BL6 mice were treated with doxorubicin (dox) at dose of 25 mg/kg, whereas the other two groups were left untreated. To assess PTD−TFAM's ability to ameliorate the toxic effects of Doxorubicin one group each of the dox-treated and untreated animals received PTD−TFAM at a dose of 0.3mg/kg on the same day as they were treated with Doxorubicin and every four days for two weeks thereafter (indicated with arrows in FIG. 1). Concurrently mice in the last two groups (one treated and one untreated with Doxorubicin) received vehicle alone (100 μl of 50% sorbitol, 2×PBS). To assess toxicity of the Doxorubicin treatment, mice were weighed once daily.
# Each treatment group was housed together in cage separate from the other treatment group(s). The animals in each case share a food hopper. Food intake was evaluated on a group-by-group basis by weighing each group's food once daily. The difference in food weight between two days provides a rough estimate of the group's food intake during the period between two measurements (i.e, a day).
# [2] = system: orthotopic MiaPaca-2 xenografts; experiment: Gemcitabine toxicity in orthotopic model of pancreatic cancer; type: in vivo, BALB/c nude mouse; details: gemcitabine 40 mg/kg every 3 days
# Description: MiaPaCa-2 tumor cells was maintained in vitro as monolayer culture in DMEM medium supplemented with 10% fetal bovine serum, 2.5% horse serum, 100 U/ml penicillin and 100 μg/m1 streptomycin, and 2 mM L-glutamine at 37° C. in an atmosphere of 5% CO2 in air. The tumor cells were routinely subcultured twice weekly by trypsin-EDTA treatment. Cells in an exponential growth phase will be harvested and counted for tumor inoculation. Before orthotopic implantation, 5×10^6 MiaPaca-2 cells in 50 μl PBS mixed with 50 μl Matrigel were inoculated subcutaneously at the right flank of each BALB/c nude mouse. Upon subcutaneous tumor size reaching about 500 mm^3, tumors were collected for orthotopic implantation.
# For orthotopic MiaPaca-2 xenografts, mice were anesthetized by intraperitoneal injection of pentobarbital sodium (50 mg/kg) before tumor inoculation. The abdominal skin was sterilized and laparotomy was performed to expose the pancreas. Each mouse was inoculated with a subcutaneous MiaPaca-2 tumor fragment (2-3 mm in diameter) in the subcapsular region of the pancreas for tumor development. The abdominal wall was closed using No. 6 suture and then sterilized with povidone iodine solution. The day of surgery was denoted as Day 0 (DO). […] The body weight of each mouse was measured on treatment days 1, 5, 8, 12, 15, 19 and 22. […]
SMILES,"deaths / survival ([1]; PTD-TFAM 0.3 mg/kg every four days, five mice per group)",food consumed by the group combined during days 6-8 ([1]; per cage of five mice),mice dead by day 22 [2] [%]
"COc1cccc2c1C(=O)c1c(O)c3c(c(O)c1C2=O)C[C@@](O)(C(=O)CO)C[C@@H]3O[C@H]1C[C@H](N)[C@H](O)[C@H](C)O1 [dox, doxorubicin]","One of the mice in dox only treatment group began to gain weight, but died on day 14",less than two grams,
Nc1ccn([C@@H]2O[C@H](CO)[C@@H](O)C2(F)F)c(=O)n1 [gemcitabine],,,50

# Reference: patent publication US20160038565A1, “Methods of Mitigating Side Effects of Radiation Exposure and Chemotherapy” (Gencia Corporation, priority 2012, published 2016)
